Entries after “also recorded” stand apart in the source; their conditions may differ.
Tests used:
DYRK1A = target: T1, DYRK1A (Homo sapiens, UniProt Q13627); assay: Protein kinase catalytic activity assay, DYRK1A; assay type: biochemical; conditions: read-out: IC50 of protein kinases, DYRK1A
T1 construct: made in house

ABCB4-L556R [1] = target: T2, ABCB4-L556R (Homo sapiens, UniProt P21439, L556R); assay: ABCB4-mediated phosphatidylcholine secretion, HEK cells expressing ABCB4-L556R; assay type: cell-based; set-up: The subcloning of wild type (WT) ABCB4, isoform A (NM_000443.3), into pcDNA3 vector has been described; expressed in transfected cells; host or cells: HEK-293 (immunoblot, PC secretion); conditions: 25 μM
Description: (§1) Cyclosporin A (CsA) was from Santa Cruz Biotechnologies (Dallas, Tex.). […] Each compound was solubilized in dimethylsulfoxide (DMSO) as 1000× concentrated stock solutions in order to treat cells with 5 μM to 100 μM final concentrations, using DMSO as control vehicle at the same dilution (0.1% DMSO for all conditions). The cells were treated 24 hours post-transfection with these drugs during 16 hours, except for the viability assays for which cells were treated during three days. After drug treatment, cells were used for immunoanalyses, cell viability assays or PC secretion assays.
(§2) HEK cells were seeded in 0.01% poly-L-lysine (Sigma) pre-coated 6-well plates of 10 cm^2 area per well (1.3×10^6 cells per well). After transient transfection of the empty vector (control), plasmids encoding ABCB4-WT or its variants, cells were incubated during 24 hours at 37° C. in serum-free medium supplemented with 0.5 mM sodium taurocholate (Sigma) and 0.02% fatty acid-free bovine serum albumin (Sigma). Then, the secreted PC was quantified from the collected media using a fluoro-enzymatic assay previously described (12). Each condition was analysed in triplicate, after background subtraction, and results were normalized to the expression levels of ABCB4 determined by immunoblots of the corresponding cell lysates.

GSK3 = GSK3 (Homo sapiens, UniProt P49841); assay: Protein kinase catalytic activity assay, GSK3; assay type: biochemical; conditions: read-out: IC50 of protein kinases, GSK3
ABCB4-I541F [2] = target: T3, ABCB4-I541F (Homo sapiens, UniProt P21439, I541F); assay: Maturation of ABCB4-I541F by immunoblot in HEK cells; assay type: cell-based; set-up: The subcloning of wild type (WT) ABCB4, isoform A (NM_000443.3), into pcDNA3 vector has been described; expressed in transfected cells; host or cells: HEK-293 (immunoblot, PC secretion); conditions: for maturation (mature form) of ABCB4-I541F: HEK cells, 100 μM, 16 hours, immunoblot; for correction of ABCB4-I541F maturation: HEK cells, 5, 10 and 25 μM
Description: as §1
Western blots and indirect immunofluorescence were performed as previously described (2, 12). […] Signals were detected with ECL prime western blotting detection reagent (GE Healthcare, Velizy-Villacoublay, France) and quantified in the linear range of detection using ImageJ 1.50i software (U.S. National Institutes of Health, Bethesda, Md.).

ABCB4-WT = target: T4, ABCB4-WT (Homo sapiens, UniProt P21439); assay: ABCB4-mediated phosphatidylcholine secretion, HEK cells expressing ABCB4-WT; assay type: cell-based; conditions: for inhibition of ABCB4-WT-mediated PC secretion compared to roscovitine: 10 μM and 25 μM; for log IC50 on the PC secretion activity of ABCB4-WT / IC50: from dose-response curves of FIG. 4C; for IC50: read-out: IC50 on the PC secretion activity of ABCB4-WT
T4 construct: The subcloning of wild type (WT) ABCB4, isoform A (NM_000443.3), into pcDNA3 vector has been described; expressed in transfected cells; host or cells: HEK-293
Description: as §1, §2

ABCB4-I490T = ABCB4-I490T (Homo sapiens, UniProt P21439, I490T); assay: ABCB4-mediated phosphatidylcholine secretion, HEK cells expressing ABCB4-I490T; assay type: cell-based; set-up: The subcloning of wild type (WT) ABCB4, isoform A (NM_000443.3), into pcDNA3 vector has been described; expressed in transfected cells; host or cells: HEK-293 (immunoblot, PC secretion); conditions: 25 μM
Description: as §1, §2

CK1 = assay: Protein kinase catalytic activity assay, CK1; assay type: biochemical; conditions: read-out: IC50 of protein kinases, CK1
ABCB4-L556R [3] = target: T2, ABCB4-L556R; assay: Maturation of ABCB4-L556R by immunoblot in HEK cells; assay type: cell-based; set-up: The subcloning of wild type (WT) ABCB4, isoform A (NM_000443.3), into pcDNA3 vector has been described; expressed in transfected cells; host or cells: HEK-293 (immunoblot, PC secretion); conditions: 5 to 25 μM
Description: Western blots and indirect immunofluorescence were performed as previously described (2, 12). […] Saturated membranes were incubated with mouse monoclonal anti-ABCB4 (clone P3II-26; Enzo Life Sciences, Villeurbanne, France) or anti-α-tubulin (clone 1E4C11; ProteinTech, Manchester, United Kingdom) antibodies and then with peroxidase conjugated anti-mouse secondary antibodies (Sigma). Signals were detected with ECL prime western blotting detection reagent (GE Healthcare, Velizy-Villacoublay, France) and quantified in the linear range of detection using ImageJ 1.50i software (U.S. National Institutes of Health, Bethesda, Md.).

ABCB4-I541F [4] = target: T3, ABCB4-I541F; assay: Canalicular localisation of ABCB4-I541F by indirect immunofluorescence in HepG2 cells; assay type: cell-based; set-up: The subcloning of wild type (WT) ABCB4, isoform A (NM_000443.3), into pcDNA3 vector has been described; expressed in transfected cells; host or cells: HepG2 (immunofluorescence); conditions: 16 hours
Description: For indirect immunofluorescence, HepG2 cells were grown on glass coverslips and after transfection and treatments, they were fixed and permeabilized during 1 min at −20° C. in ice-cold methanol. Then ABCB4 and ABCC2 were immunolabelled using the mouse monoclonal P3II-26 (IgG2b) and M2I-4 (IgG1) antibodies (Enzo Life Sciences), respectively. […] For each experiment, all images were acquired with constant settings (acquisition time and correction of signal intensities).

CDK2/A = target: T5, CDK2/A (Homo sapiens, UniProt P24941); assay: Protein kinase catalytic activity assay, CDK2/cyclin A; assay type: biochemical; conditions: activator cyclin A; read-out: IC50 of protein kinases, CDK2/A
T5 construct: made in house

CLK1 = target: T6, CLK1 (Homo sapiens, UniProt P49759); assay: Protein kinase catalytic activity assay, CLK1; assay type: biochemical; conditions: read-out: IC50 of protein kinases, CLK1
T6 construct: made in house
T6 sequence (P49759 whole entry): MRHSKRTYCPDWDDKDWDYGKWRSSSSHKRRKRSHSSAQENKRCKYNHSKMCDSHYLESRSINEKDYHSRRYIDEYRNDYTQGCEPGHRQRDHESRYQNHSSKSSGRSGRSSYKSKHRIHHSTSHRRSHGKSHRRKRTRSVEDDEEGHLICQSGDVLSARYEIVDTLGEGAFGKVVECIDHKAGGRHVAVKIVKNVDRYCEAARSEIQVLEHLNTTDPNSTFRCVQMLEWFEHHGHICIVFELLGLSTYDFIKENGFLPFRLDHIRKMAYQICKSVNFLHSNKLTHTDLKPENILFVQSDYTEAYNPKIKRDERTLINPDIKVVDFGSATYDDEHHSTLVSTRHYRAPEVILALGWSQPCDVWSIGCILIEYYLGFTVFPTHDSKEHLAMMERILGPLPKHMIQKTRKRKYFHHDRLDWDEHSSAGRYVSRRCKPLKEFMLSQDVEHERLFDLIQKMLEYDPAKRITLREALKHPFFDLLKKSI

Chain of ABCB4-I490T (P21439 1-1279 isoform P21439-2 I490T): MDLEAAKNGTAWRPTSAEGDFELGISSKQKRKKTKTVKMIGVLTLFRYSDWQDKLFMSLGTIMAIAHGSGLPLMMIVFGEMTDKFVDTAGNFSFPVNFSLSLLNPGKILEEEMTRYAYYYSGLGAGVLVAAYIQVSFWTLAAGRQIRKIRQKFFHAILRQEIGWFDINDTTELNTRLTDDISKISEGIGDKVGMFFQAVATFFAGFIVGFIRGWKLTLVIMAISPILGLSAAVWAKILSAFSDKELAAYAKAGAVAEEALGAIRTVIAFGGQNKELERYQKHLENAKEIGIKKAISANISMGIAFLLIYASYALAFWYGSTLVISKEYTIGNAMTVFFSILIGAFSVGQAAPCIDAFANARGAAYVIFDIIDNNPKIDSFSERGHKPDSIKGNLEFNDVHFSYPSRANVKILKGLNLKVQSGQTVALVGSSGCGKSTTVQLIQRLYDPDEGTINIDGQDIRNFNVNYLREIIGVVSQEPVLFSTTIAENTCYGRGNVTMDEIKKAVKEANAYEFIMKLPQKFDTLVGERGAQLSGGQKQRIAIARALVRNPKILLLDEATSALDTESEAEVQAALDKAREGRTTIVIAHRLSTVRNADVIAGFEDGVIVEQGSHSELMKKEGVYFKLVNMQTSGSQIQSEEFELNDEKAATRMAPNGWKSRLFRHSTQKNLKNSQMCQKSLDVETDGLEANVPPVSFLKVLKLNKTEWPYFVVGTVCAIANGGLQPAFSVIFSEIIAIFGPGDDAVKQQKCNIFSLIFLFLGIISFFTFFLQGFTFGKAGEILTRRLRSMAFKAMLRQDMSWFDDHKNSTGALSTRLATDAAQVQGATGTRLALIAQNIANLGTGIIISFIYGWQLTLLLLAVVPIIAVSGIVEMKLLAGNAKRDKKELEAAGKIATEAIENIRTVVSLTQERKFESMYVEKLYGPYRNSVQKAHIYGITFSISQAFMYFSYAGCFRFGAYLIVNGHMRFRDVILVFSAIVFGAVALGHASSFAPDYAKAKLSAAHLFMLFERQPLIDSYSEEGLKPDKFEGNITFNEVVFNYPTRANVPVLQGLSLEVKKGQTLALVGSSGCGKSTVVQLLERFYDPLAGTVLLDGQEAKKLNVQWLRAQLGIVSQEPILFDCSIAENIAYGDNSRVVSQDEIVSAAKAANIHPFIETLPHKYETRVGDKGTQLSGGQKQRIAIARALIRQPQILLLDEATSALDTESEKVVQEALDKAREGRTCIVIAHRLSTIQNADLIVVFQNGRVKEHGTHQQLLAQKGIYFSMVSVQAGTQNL
Chain of GSK3 (P49841 whole entry, canonical isoform): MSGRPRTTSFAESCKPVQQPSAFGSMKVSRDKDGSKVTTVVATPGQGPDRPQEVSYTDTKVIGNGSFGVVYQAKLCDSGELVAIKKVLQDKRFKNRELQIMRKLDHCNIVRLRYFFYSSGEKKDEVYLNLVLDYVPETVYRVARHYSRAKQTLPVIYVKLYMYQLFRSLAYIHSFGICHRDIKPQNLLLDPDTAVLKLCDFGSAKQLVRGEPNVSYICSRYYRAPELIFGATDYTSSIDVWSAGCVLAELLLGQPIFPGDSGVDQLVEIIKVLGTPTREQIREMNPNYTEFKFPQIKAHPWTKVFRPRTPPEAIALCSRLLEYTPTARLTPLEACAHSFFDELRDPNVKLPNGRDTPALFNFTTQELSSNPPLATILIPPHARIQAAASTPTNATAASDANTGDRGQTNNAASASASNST
T3 sequence (P21439 1-1279 isoform P21439-2 I541F): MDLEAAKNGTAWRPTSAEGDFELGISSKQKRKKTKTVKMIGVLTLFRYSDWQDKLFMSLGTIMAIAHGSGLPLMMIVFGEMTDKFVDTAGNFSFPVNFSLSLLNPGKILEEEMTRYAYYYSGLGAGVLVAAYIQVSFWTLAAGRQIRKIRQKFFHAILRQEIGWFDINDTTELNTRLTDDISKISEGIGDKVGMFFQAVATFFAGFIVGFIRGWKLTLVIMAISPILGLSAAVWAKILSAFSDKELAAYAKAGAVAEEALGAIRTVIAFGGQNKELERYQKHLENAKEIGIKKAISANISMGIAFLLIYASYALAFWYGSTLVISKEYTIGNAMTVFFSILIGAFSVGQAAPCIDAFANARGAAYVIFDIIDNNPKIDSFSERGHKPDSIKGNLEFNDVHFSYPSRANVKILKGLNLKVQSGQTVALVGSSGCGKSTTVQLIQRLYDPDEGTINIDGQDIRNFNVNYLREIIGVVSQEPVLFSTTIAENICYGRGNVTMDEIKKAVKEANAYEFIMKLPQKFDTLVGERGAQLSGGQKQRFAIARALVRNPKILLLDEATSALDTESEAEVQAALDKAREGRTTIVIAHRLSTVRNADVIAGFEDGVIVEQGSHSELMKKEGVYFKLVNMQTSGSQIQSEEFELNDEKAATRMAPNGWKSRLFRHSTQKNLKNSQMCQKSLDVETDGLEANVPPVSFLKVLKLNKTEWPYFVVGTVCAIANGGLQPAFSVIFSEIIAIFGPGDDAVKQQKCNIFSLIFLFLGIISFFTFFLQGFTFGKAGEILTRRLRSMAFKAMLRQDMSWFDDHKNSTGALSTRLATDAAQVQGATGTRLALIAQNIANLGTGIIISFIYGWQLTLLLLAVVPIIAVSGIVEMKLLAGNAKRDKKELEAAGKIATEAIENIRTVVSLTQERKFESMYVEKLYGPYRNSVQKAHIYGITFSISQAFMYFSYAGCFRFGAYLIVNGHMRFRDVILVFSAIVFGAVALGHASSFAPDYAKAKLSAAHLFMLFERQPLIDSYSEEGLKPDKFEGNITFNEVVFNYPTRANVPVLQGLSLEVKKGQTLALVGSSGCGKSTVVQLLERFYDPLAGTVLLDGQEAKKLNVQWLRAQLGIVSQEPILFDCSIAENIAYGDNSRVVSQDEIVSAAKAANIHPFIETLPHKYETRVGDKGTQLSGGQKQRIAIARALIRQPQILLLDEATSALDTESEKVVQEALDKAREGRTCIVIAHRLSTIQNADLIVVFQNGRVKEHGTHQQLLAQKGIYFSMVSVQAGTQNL
T4 sequence (P21439 1-1279 isoform P21439-2): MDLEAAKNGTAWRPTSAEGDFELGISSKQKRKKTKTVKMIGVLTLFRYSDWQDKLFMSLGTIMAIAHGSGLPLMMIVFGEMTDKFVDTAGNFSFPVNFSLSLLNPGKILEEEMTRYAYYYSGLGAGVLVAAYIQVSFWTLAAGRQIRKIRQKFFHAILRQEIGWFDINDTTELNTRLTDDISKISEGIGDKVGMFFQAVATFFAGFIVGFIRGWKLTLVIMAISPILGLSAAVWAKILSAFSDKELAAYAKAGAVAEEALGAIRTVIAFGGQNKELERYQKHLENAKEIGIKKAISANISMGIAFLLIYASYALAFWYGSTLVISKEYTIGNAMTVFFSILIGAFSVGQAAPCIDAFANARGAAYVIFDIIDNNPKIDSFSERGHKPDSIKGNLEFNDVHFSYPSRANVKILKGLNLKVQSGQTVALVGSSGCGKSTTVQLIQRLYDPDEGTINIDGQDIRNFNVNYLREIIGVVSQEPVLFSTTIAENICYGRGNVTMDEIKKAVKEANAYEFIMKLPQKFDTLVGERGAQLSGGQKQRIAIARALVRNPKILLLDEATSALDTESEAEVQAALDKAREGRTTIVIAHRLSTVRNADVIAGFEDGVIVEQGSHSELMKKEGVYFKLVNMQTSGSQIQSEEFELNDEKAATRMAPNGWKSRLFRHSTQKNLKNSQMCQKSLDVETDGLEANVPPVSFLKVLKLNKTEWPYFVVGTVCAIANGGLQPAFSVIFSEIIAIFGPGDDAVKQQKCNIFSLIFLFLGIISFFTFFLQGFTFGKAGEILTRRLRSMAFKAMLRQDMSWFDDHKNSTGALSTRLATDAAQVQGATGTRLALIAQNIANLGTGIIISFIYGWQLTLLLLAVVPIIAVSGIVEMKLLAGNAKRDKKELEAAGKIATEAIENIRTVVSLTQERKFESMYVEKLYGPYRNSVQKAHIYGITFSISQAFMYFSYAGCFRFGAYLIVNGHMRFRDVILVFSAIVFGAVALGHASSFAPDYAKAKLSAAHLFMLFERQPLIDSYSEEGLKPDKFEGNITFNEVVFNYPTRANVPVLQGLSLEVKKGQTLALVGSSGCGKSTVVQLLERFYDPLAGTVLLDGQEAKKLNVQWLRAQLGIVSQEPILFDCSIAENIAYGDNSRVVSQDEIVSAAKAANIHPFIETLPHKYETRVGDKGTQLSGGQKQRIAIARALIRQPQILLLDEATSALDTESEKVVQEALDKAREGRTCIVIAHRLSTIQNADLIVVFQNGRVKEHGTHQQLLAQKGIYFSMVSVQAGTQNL

Compound | IC50 (DYRK1A) | PC secretion residual activity of ABCB4-L556R (ABCB4-L556R [1]) | IC50 (GSK3) | maturation (mature form) of ABCB4-I541F (ABCB4-I541F [2]) | correction of ABCB4-I541F maturation (ABCB4-I541F [2]) | inhibition of ABCB4-WT-mediated PC secretion compared to roscovitine (ABCB4-WT) | log IC50 on the PC secretion activity of ABCB4-WT (ABCB4-WT) | IC50 (ABCB4-WT) | PC secretion residual activity of ABCB4-I490T (ABCB4-I490T) | IC50 (CK1) | rescue of the maturation of ABCB4-L556R (ABCB4-L556R [3]) | relocalisation of ABCB4-I541F at bile canaliculi (ABCB4-I541F [4]; 25 μM) | relocalisation of ABCB4-I541F at bile canaliculi (ABCB4-I541F [4]; 100 μM) | IC50 (CDK2/A) | IC50 (CLK1)
CC[C@@H](Nc1nc(NCc2cccc(F)c2)c2ncn(C3CCCC3)c2n1)C(=O)O [MRT2-235] | 21 µM | significant increase of the residual activity | > 10 µM | significantly increase the expression of a mature form of ABCB4-I541F; also recorded: significant rescue of the maturation | dose-dependent correction of ABCB4-I541F maturation | less inhibitory than the original molecule | −4.678 | 21 µM | significant increase of the residual activity | 7 µM | dose-dependent rescue of the maturation | partial relocalisation of ABCB4-I541F at bile canaliculi | partial relocalisation of ABCB4-I541F at bile canaliculi | 5.9 µM | 11 µM
CC[C@@H](Nc1nc(NCc2cccc(Cl)c2)c2ncn(C3CCCC3)c2n1)C(=O)O [MRT2-237] | 13 µM | significant increase of the residual activity | > 10 µM | significantly increase the expression of a mature form of ABCB4-I541F; also recorded: significant rescue of the maturation | dose-dependent correction of ABCB4-I541F maturation | less inhibitory than the original molecule | −4.533 | 29.3 µM | significant increase of the residual activity | 3.33 µM | dose-dependent rescue of the maturation | partial relocalisation of ABCB4-I541F at bile canaliculi | partial relocalisation of ABCB4-I541F at bile canaliculi | 3.4 µM | 8.5 µM
CC[C@@H](Nc1nc(NCc2ccc(Cl)c(F)c2)c2ncn(C3CCCC3)c2n1)C(=O)O [MRT2-243] | 12 µM | significant increase of the residual activity | > 10 µM | significantly increase the expression of a mature form of ABCB4-I541F; also recorded: significant rescue of the maturation | dose-dependent correction of ABCB4-I541F maturation | less inhibitory than the original molecule | −4.754 | 17.6 µM | significant increase of the residual activity | 6.1 µM | dose-dependent rescue of the maturation | partial relocalisation of ABCB4-I541F at bile canaliculi | partial relocalisation of ABCB4-I541F at bile canaliculi | 3 µM | 20 µM

— patent US20220160716A1 (SORBONNE UNIVERSITE, priority 2019, published 2022)
